Reference: US11964929B2, “Application of glutamine derivative in preparation of animal feed additive” (WISORIG TE[…]. LIMITED, priority 2018, dated 2024)

These compounds were tested on Duroc×Landrace×Yorkshire cross-bred bacon-type pigs (assay: Effect of the glutamine derivatives on the production performance of hogs (piglets), 28-day feeding). Conditions: 65-day-old pigs, basal ration + 800 ppm, 28 days.
Assay type: in vivo
Source text: 480 65-day-old Duroc×Landrace×Yorkshire cross-bred bacon-type pigs with similar body weight, were randomly divided into 16 groups, with 3 replications per group and 10 pigs (half of male and female) per replication. The pig pen and tools were sterilized before the experiment. […] The experiment lasted for 28 days.

Row | Compound | ADFI (average daily feed intake) [g/d per piglet] | ADG (average daily weight gain) [g/d per piglet]
1 | CCNC(=O)CCC(NC(=O)c1ccccc1)C(=O)O (stereo not drawn) [Compound 1] | 1657 | 661
2 | CCCCNC(=O)CCC(NC(=O)c1ccccc1)C(=O)O (stereo not drawn) [Compound 2] | 1648 | 651
3 | O=C(NC(CCC(=O)N1CCCCC1)C(=O)O)c1ccccc1 (stereo not drawn) [Compound 5] | 1633 | 651
4 | CCNC(=O)CCC(NC(=O)c1ccccc1)C(=O)OCC (stereo not drawn) [Compound 6] | 1615 | 646
5 | CCNC(=O)CCC(NC(=O)c1ccccc1)C(=O)[O-].CCNC(=O)CCC(NC(=O)c1ccccc1)C(=O)[O-].[Zn+2] (stereo not drawn) [Compound 7] | 1674 | 672
6 | CCNC(=O)CCC(NC(=O)c1ccccc1)C(=O)[O-].CCNC(=O)CCC(NC(=O)c1ccccc1)C(=O)[O-].[Cu+2] (stereo not drawn) [Compound 8] | 1670 | 671
7 | CCNC(=O)CCC(NC(=O)c1ccccc1)C(=O)[O-].CCNC(=O)CCC(NC(=O)c1ccccc1)C(=O)[O-].[Ca+2] (stereo not drawn) [Compound 9] | 1636 | 652
8 | CCNC(=O)CCC(NC(=O)c1ccc(Cl)cc1)C(=O)O (stereo not drawn) [Compound 10] | 1607 | 657
9 | CCNC(=O)CCC(NC(=O)c1ccc(C)cc1)C(=O)O (stereo not drawn) [Compound 11] | 1592 | 634
10 | CCNC(=O)CCC(NC(=O)c1ccc(O)cc1)C(=O)O (stereo not drawn) [Compound 12] | 1599 | 633
11 | CCCC(=O)NC(CCC(=O)NCC)C(=O)O (stereo not drawn) [Compound 13] | 1609 | 627
12 | CCCCCCCCCC(=O)NC(CCC(=O)NCC)C(=O)O (stereo not drawn) [Compound 14] | 1582 | 621
13 | CCCCCCCCCCCCCC(=O)NC(CCC(=O)NCC)C(=O)O (stereo not drawn) [Compound 15] | 1670 | 650

Same assay, conditions: 65-day-old pigs, basal ration + 800 ppm, 28 days; ADFI/ADG

Row | Compound | FCR (feed conversion ratio)
14 | CCNC(=O)CCC(NC(=O)c1ccccc1)C(=O)O (stereo not drawn) [Compound 1] | 2.506
15 | CCCCNC(=O)CCC(NC(=O)c1ccccc1)C(=O)O (stereo not drawn) [Compound 2] | 2.531
16 | O=C(NC(CCC(=O)N1CCCCC1)C(=O)O)c1ccccc1 (stereo not drawn) [Compound 5] | 2.510
17 | CCNC(=O)CCC(NC(=O)c1ccccc1)C(=O)OCC (stereo not drawn) [Compound 6] | 2.499
18 | CCNC(=O)CCC(NC(=O)c1ccccc1)C(=O)[O-].CCNC(=O)CCC(NC(=O)c1ccccc1)C(=O)[O-].[Zn+2] (stereo not drawn) [Compound 7] | 2.491
19 | CCNC(=O)CCC(NC(=O)c1ccccc1)C(=O)[O-].CCNC(=O)CCC(NC(=O)c1ccccc1)C(=O)[O-].[Cu+2] (stereo not drawn) [Compound 8] | 2.488
20 | CCNC(=O)CCC(NC(=O)c1ccccc1)C(=O)[O-].CCNC(=O)CCC(NC(=O)c1ccccc1)C(=O)[O-].[Ca+2] (stereo not drawn) [Compound 9] | 2.511
21 | CCNC(=O)CCC(NC(=O)c1ccc(Cl)cc1)C(=O)O (stereo not drawn) [Compound 10] | 2.508
22 | CCNC(=O)CCC(NC(=O)c1ccc(C)cc1)C(=O)O (stereo not drawn) [Compound 11] | 2.512
23 | CCNC(=O)CCC(NC(=O)c1ccc(O)cc1)C(=O)O (stereo not drawn) [Compound 12] | 2.528
24 | CCCC(=O)NC(CCC(=O)NCC)C(=O)O (stereo not drawn) [Compound 13] | 2.566
25 | CCCCCCCCCC(=O)NC(CCC(=O)NCC)C(=O)O (stereo not drawn) [Compound 14] | 2.548
26 | CCCCCCCCCCCCCC(=O)NC(CCC(=O)NCC)C(=O)O (stereo not drawn) [Compound 15] | 2.571

What follows are compounds tested on yellow broilers (assay: not given). Conditions: 1-day-old yellow broilers, basal ration + 750 ppm, 20 days.

Row | Compound | ADFI (average daily feed intake) [g/d per broiler] | ADG (average daily weight gain) [g/d per broiler]
27 | CCNC(=O)CCC(NC(=O)c1ccccc1)C(=O)O (stereo not drawn) [Compound 1] | 32.8 | 14.8
28 | CCCCNC(=O)CCC(NC(=O)c1ccccc1)C(=O)O (stereo not drawn) [Compound 2] | 31.5 | 14.1
29 | O=C(NC(CCC(=O)N1CCCCC1)C(=O)O)c1ccccc1 (stereo not drawn) [Compound 5] | 30.9 | 13.7
30 | CCNC(=O)CCC(NC(=O)c1ccccc1)C(=O)OCC (stereo not drawn) [Compound 6] | 31.2 | 14.2
31 | CCNC(=O)CCC(NC(=O)c1ccccc1)C(=O)[O-].CCNC(=O)CCC(NC(=O)c1ccccc1)C(=O)[O-].[Zn+2] (stereo not drawn) [Compound 7] | 31.7 | 14.5
32 | CCNC(=O)CCC(NC(=O)c1ccccc1)C(=O)[O-].CCNC(=O)CCC(NC(=O)c1ccccc1)C(=O)[O-].[Cu+2] (stereo not drawn) [Compound 8] | 30.6 | 14.2
33 | CCNC(=O)CCC(NC(=O)c1ccccc1)C(=O)[O-].CCNC(=O)CCC(NC(=O)c1ccccc1)C(=O)[O-].[Ca+2] (stereo not drawn) [Compound 9] | 32.5 | 14.8
34 | CCNC(=O)CCC(NC(=O)c1ccc(Cl)cc1)C(=O)O (stereo not drawn) [Compound 10] | 32.2 | 14.5
35 | CCNC(=O)CCC(NC(=O)c1ccc(C)cc1)C(=O)O (stereo not drawn) [Compound 11] | 30.8 | 13.8
36 | CCNC(=O)CCC(NC(=O)c1ccc(O)cc1)C(=O)O (stereo not drawn) [Compound 12] | 31.6 | 14.0
37 | CCCC(=O)NC(CCC(=O)NCC)C(=O)O (stereo not drawn) [Compound 13] | 31.3 | 13.7
38 | CCCCCCCCCC(=O)NC(CCC(=O)NCC)C(=O)O (stereo not drawn) [Compound 14] | 31.8 | 14.0
39 | CCCCCCCCCCCCCC(=O)NC(CCC(=O)NCC)C(=O)O (stereo not drawn) [Compound 15] | 32.4 | 14.6

Same assay, conditions: 1-day-old yellow broilers, basal ration + 750 ppm, 20 days; ADFI/ADG

Row | Compound | FCR (feed conversion ratio)
40 | CCNC(=O)CCC(NC(=O)c1ccccc1)C(=O)O (stereo not drawn) [Compound 1] | 2.22
41 | CCCCNC(=O)CCC(NC(=O)c1ccccc1)C(=O)O (stereo not drawn) [Compound 2] | 2.23
42 | O=C(NC(CCC(=O)N1CCCCC1)C(=O)O)c1ccccc1 (stereo not drawn) [Compound 5] | 2.26
43 | CCNC(=O)CCC(NC(=O)c1ccccc1)C(=O)OCC (stereo not drawn) [Compound 6] | 2.20
44 | CCNC(=O)CCC(NC(=O)c1ccccc1)C(=O)[O-].CCNC(=O)CCC(NC(=O)c1ccccc1)C(=O)[O-].[Zn+2] (stereo not drawn) [Compound 7] | 2.18
45 | CCNC(=O)CCC(NC(=O)c1ccccc1)C(=O)[O-].CCNC(=O)CCC(NC(=O)c1ccccc1)C(=O)[O-].[Cu+2] (stereo not drawn) [Compound 8] | 2.16
46 | CCNC(=O)CCC(NC(=O)c1ccccc1)C(=O)[O-].CCNC(=O)CCC(NC(=O)c1ccccc1)C(=O)[O-].[Ca+2] (stereo not drawn) [Compound 9] | 2.20
47 | CCNC(=O)CCC(NC(=O)c1ccc(Cl)cc1)C(=O)O (stereo not drawn) [Compound 10] | 2.22
48 | CCNC(=O)CCC(NC(=O)c1ccc(C)cc1)C(=O)O (stereo not drawn) [Compound 11] | 2.24
49 | CCNC(=O)CCC(NC(=O)c1ccc(O)cc1)C(=O)O (stereo not drawn) [Compound 12] | 2.26
50 | CCCC(=O)NC(CCC(=O)NCC)C(=O)O (stereo not drawn) [Compound 13] | 2.28
51 | CCCCCCCCCC(=O)NC(CCC(=O)NCC)C(=O)O (stereo not drawn) [Compound 14] | 2.27
52 | CCCCCCCCCCCCCC(=O)NC(CCC(=O)NCC)C(=O)O (stereo not drawn) [Compound 15] | 2.22

Each compound was assayed on Grass carps (assay: not given). Conditions: basal ration + 500 ppm, 8 weeks, 580/(final−initial weight).

Row | Compound | Feed coefficient
53 | CCNC(=O)CCC(NC(=O)c1ccccc1)C(=O)O (stereo not drawn) [Compound 1] | 1.79
54 | CCCCNC(=O)CCC(NC(=O)c1ccccc1)C(=O)O (stereo not drawn) [Compound 2] | 1.78
55 | O=C(NC(CCC(=O)N1CCCCC1)C(=O)O)c1ccccc1 (stereo not drawn) [Compound 5] | 1.80
56 | CCNC(=O)CCC(NC(=O)c1ccccc1)C(=O)OCC (stereo not drawn) [Compound 6] | 1.77
57 | CCNC(=O)CCC(NC(=O)c1ccc(Cl)cc1)C(=O)O (stereo not drawn) [Compound 10] | 1.81
58 | CCNC(=O)CCC(NC(=O)c1ccc(C)cc1)C(=O)O (stereo not drawn) [Compound 11] | 1.80
59 | CCNC(=O)CCC(NC(=O)c1ccc(O)cc1)C(=O)O (stereo not drawn) [Compound 12] | 1.79
60 | CCCC(=O)NC(CCC(=O)NCC)C(=O)O (stereo not drawn) [Compound 13] | 1.83
61 | CCCCCCCCCC(=O)NC(CCC(=O)NCC)C(=O)O (stereo not drawn) [Compound 14] | 1.81
62 | CCCCCCCCCCCCCC(=O)NC(CCC(=O)NCC)C(=O)O (stereo not drawn) [Compound 15] | 1.80

Same assay, conditions: basal ration + 500 ppm, 8 weeks, (final−initial)/initial×100

Row | Compound | Weight gain rate [%]
63 | CCNC(=O)CCC(NC(=O)c1ccccc1)C(=O)O (stereo not drawn) [Compound 1] | 72.41
64 | CCCCNC(=O)CCC(NC(=O)c1ccccc1)C(=O)O (stereo not drawn) [Compound 2] | 70.47
65 | O=C(NC(CCC(=O)N1CCCCC1)C(=O)O)c1ccccc1 (stereo not drawn) [Compound 5] | 71.27
66 | CCNC(=O)CCC(NC(=O)c1ccccc1)C(=O)OCC (stereo not drawn) [Compound 6] | 72.84
67 | CCNC(=O)CCC(NC(=O)c1ccc(Cl)cc1)C(=O)O (stereo not drawn) [Compound 10] | 72.34
68 | CCNC(=O)CCC(NC(=O)c1ccc(C)cc1)C(=O)O (stereo not drawn) [Compound 11] | 70.73
69 | CCNC(=O)CCC(NC(=O)c1ccc(O)cc1)C(=O)O (stereo not drawn) [Compound 12] | 69.56
70 | CCCC(=O)NC(CCC(=O)NCC)C(=O)O (stereo not drawn) [Compound 13] | 70.42
71 | CCCCCCCCCC(=O)NC(CCC(=O)NCC)C(=O)O (stereo not drawn) [Compound 14] | 70.70
72 | CCCCCCCCCCCCCC(=O)NC(CCC(=O)NCC)C(=O)O (stereo not drawn) [Compound 15] | 70.73

Same assay, conditions: basal ration + 500 ppm, restricted feeding, 8 weeks

Row | Compound | Average final weight [g]
73 | CCNC(=O)CCC(NC(=O)c1ccccc1)C(=O)O (stereo not drawn) [Compound 1] | 678
74 | CCCCNC(=O)CCC(NC(=O)c1ccccc1)C(=O)O (stereo not drawn) [Compound 2] | 690
75 | O=C(NC(CCC(=O)N1CCCCC1)C(=O)O)c1ccccc1 (stereo not drawn) [Compound 5] | 678
76 | CCNC(=O)CCC(NC(=O)c1ccccc1)C(=O)OCC (stereo not drawn) [Compound 6] | 681
77 | CCNC(=O)CCC(NC(=O)c1ccc(Cl)cc1)C(=O)O (stereo not drawn) [Compound 10] | 669
78 | CCNC(=O)CCC(NC(=O)c1ccc(C)cc1)C(=O)O (stereo not drawn) [Compound 11] | 681
79 | CCNC(=O)CCC(NC(=O)c1ccc(O)cc1)C(=O)O (stereo not drawn) [Compound 12] | 692
80 | CCCC(=O)NC(CCC(=O)NCC)C(=O)O (stereo not drawn) [Compound 13] | 687
81 | CCCCCCCCCC(=O)NC(CCC(=O)NCC)C(=O)O (stereo not drawn) [Compound 14] | 678
82 | CCCCCCCCCCCCCC(=O)NC(CCC(=O)NCC)C(=O)O (stereo not drawn) [Compound 15] | 681
